Data from patent US20120142730A1 (priority 2010, published 2012).
Like-named read-outs stand apart in the source and are kept apart here.

Tests used:
[1] = test system: subjects with relapsing remitting multiple sclerosis (RRMS); assay: ALLEGRO phase III trial: safety and tolerability; format: in vivo, human
Method: Eligible subjects were equally randomized 1:1 into one of the following treatment arms: • 1. […] 21, 2007 (see, page 10, line 5 to page 11, line 3). • 2. Matching placebo for laquinimod arm: one capsule is administered once daily.
The following assessments were performed at specified time points: • 1. Vital signs were measured at each study visit. • 2. A physical examination is performed at months −1 (screening), (baseline) 1, 3, 6, 12, 18 and 24 (termination/early discontinuation core study). In case of the 6 months extended study, additional examination was performed at month 30 (termination/early discontinuation of extended study). • 3. The following safety clinical laboratory tests were performed: • a. Complete blood count (CBC) with differential—at all scheduled visits. A reticulocyte count was added to the CBC at months 0 (baseline) and 24/30 (termination/early discontinuation). • b. Serum chemistry (including electrolytes, liver enzymes, direct and total bilirubin and pancreatic amylase and CPK), and urinalysis—at all scheduled visits. • c. A rapid urine β-hCG test was performed in women of child-bearing potential at baseline (month 0) and at each scheduled study visit thereafter (at site). • d. β-hCG in women of child-bearing potential was performed at all scheduled visits. • e. Starting after visit Month 3 a rapid urine β-hCG test was performed in women of child-bearing potential every 28 (±2) days. […] Adverse Events (AEs) are monitored throughout the study. • 9. Concomitant medications are monitored throughout the study. • 10. […] MS functional Composite (MSFC) was assessed at months −1 (screening) (three practices for training purposes only), at month 0 (baseline), 6, 12, 18 and 24 (termination/early discontinuation). […] Subject-reported fatigue was assessed by the Modified Fatigue Impact Scale (MFIS) at months 0, 6, 12, 18, and 24 (termination/early discontinuation). […] The general health status was assessed by the EuroQoL (EQ5D) questionnaire at month 0 (baseline) and month 24 (termination/early discontinuation of the study). […]

relapsing MS = conditions: cited from earlier work; for Development of active MRI lesions in relapsing MS: Polman, 2005

CCN(C(=O)c1c(O)c2c(Cl)cccc2n(C)c1=O)c1ccccc1 [Laquinimod, laquinimod]
Deaths ([1]; 0.6 mg daily oral, 24 months): No deaths
Time of occurrence of ALT elevations up to 5×ULN ([1]; human, in vivo): ≤ 6 months
Reversibility of ALT elevations up to 5×ULN ([1]; in vivo): all were reversible
MRI and clinical effect as compared to placebo (relapsing MS; 0.3 mg/day oral dose, Comi, 2007): neither MRI nor clinical effect
Development of active MRI lesions in relapsing MS (relapsing MS; 0.3 mg/day oral dose): reduce development of active MRI lesions
Development of active MRI lesions in relapsing MS (relapsing MS): reduce development of active MRI lesions
